Experimental data reported in ChEMBL document CHEMBL1145977, “Synthesis and dopamine receptor modulating activity of 3-substituted gamma-lactam peptidomimetics of L-prolyl-L-leucyl-glycinamide” (J Med Chem, 2003).

Legend:
Type in all cases: functional
[1] = target: T1, Dopamine receptor (Rattus norvegicus) (UniProt P25115+P19020+P30729+P18901+P61169); experiment: Dopamine receptor modulating activity of compound was evaluated by rat nigrostriatal 6-hydroxydopamine lesion rotation model at dose of 1 ug/kg given intraperitoneally
[2] = target: T1, Dopamine receptor (Rattus norvegicus); experiment: Dopamine receptor modulating activity of compound was evaluated by rat nigrostriatal 6-hydroxydopamine lesion rotation model at dose of 0.1 ug/kg given intraperitoneally
[3] = species on record: Bos taurus; experiment: Percent enhancement of [3H]NPE binding to bovine striatal membranes at 100 nM concentration; conditions: Striatum, Membrane

Compound	Enhancement [3] [%]	also measured
NC(=O)[C@H]1CS[C@@H]2C[C@@](Cc3ccccc3)(NC(=O)[C@@H]3CCCN3)C(=O)N12		Enhancement [1]: 30%
NC(=O)[C@H]1CS[C@@H]2C[C@@H](NC(=O)[C@@H]3CCCN3)C(=O)N12		Enhancement [2]: 23%
CC(C)C[C@@]1(NC(=O)[C@@H]2CCCN2)CCN(CC(N)=O)C1=O	59	
CC(C)C[C@@]1(NC(=O)[C@@H]2CCCN2)C[C@H]2SC[C@H](C(N)=O)N2C1=O		Enhancement [1]: 44%
NC(=O)CN1CC[C@@](Cc2ccccc2)(NC(=O)[C@@H]2CCCN2)C1=O	116	
CCCC[C@@]1(NC(=O)[C@@H]2CCCN2)C[C@H]2SC[C@H](C(N)=O)N2C1=O		Enhancement [2]: 56%
CCCC[C@@]1(NC(=O)[C@@H]2CCCN2)CCN(CC(N)=O)C1=O	89	
NC(=O)CN1CC[C@@H](NC(=O)[C@@H]2CCCN2)C1=O	36	
